From patent US7998972B2, “1H-imidazo[4,5-c]quinoline derivatives in the treatment of protein kinase dependent diseases” (Novartis AG, priority 2002, dated 2011) come the findings set out here.

By melting point is commonly meant the temperature, or range, at which the solid turns liquid. As usually defined, the IC50 is the concentration that inhibits the measured activity by half.

One data set concerns the target T1, c-Met (Homo sapiens, UniProt P08581).
T1 construct: c-Met cytoplasmic domain (amino acids 969 to C-terminus); made in house; host or cells: baculovirus / Sf9 cells
The data set can be described thus: Inhibition of c-Met kinase (33P-ATP filter assay). The following applies: GST-c-Met cytoplasmic domain, poly(EY) substrate; read-out: IC50 range class, inhibition of c-Met. The format is biochemical. The text has this:
Compounds of the formula I, for example, are able to inhibit c-Met kinase as mentioned already in the introduction. Using the sequence disclosed by Chan et al. (see Chan, A M-L, King H W S, Tempest P R, Deakin E A, Cooper C S, Brookes P. Primary structure of the met protein tyrosine kinase domain. Oncogene 1987; 12:229-233), a construct with this sequence, after hooking to a GST tag, was cloned into baculovirus and expressed in Sf9 cells. After partial purification by affinity chromatography on GST agarose resulting in a >90% pure preparation (SDS-PAGE), the kinase activity of this construct is used for inhibition assays using the compounds of formula I. The quality of the purified kinase preparations is highly reproducible: 9 batches of c-Met gives an average specific activity of 32.3±5.7 nmol/mg·min.
For inhibition studies, the following experimental protocol is used:
In vitro protein kinase assays are performed in 96-well plates. The amount of enzyme used in kinase assays and the incubation time for the kinase reaction are adjusted so that maximally 25% (in routine experiments <10%) of the substrate ATP are consumed.
Test compounds of the formula I are first dissolved in DMSO at a concentration of 1-10 mM (stock solution) and then further diluted with water/3% DMSO as required so that the final DMSO concentration in the assay is 1%.
The assay components are mixed in the following order: • 10 μl 3×compound (in 3% DMSO) • 10 μl 3×assay mix (MgCl2/MnCl2/ATP/^33P-ATP/poly(EY)) • 10 μl 3×enzyme dilution
Assays are incubated for 15 min (in special cases up to 60 min) at ambient temperature, reactions terminated by addition of 10 μl 0.25 M EDTA pH 7, then 20 μl transferred to a Millipore Immobilon^P membrane (previously soaked for 5 min with methanol, rinsed with water, then soaked for 5 min with 0.5% H3PO4 and mounted on vacuum manifold) with disconnected vacuum source. After spotting all samples, vacuum is connected and each well rinsed with 200 μl 0.5% H3PO4. Membranes are removed and washed 4× on shaker with 0.5% H3PO4, once with methanol. Membranes are counted after drying at ambient temperature, mounting in Packard TopCount 96-well frame, and addition of 10 μl/well of the scintillator Microscint™ (Packard).
IC50 values are calculated by logarithmic regression analysis of the percentage inhibition of each compound at 4 concentrations (usually 3- or 10-fold dilution series starting at 10 μM). In each experiment, the actual inhibition by reference compound is used for normalization of IC50 values to the basis of an average value of the reference inhibitor: Normalized IC50=measured IC50·average ref. IC50/measured ref. IC50 Example: • Reference inhibitor in experiment 0.4 μM, average 0.3 μM • Test compound in experiment 1.0 μM, normalization: 1.0·0.3/0.4=0.75 μM
For example, staurosporine or a synthetic staurosporine derivative are used as reference compounds.

Structures are written as SMILES. Counter-ions that a name gives are not always drawn.

T1 sequence (P08581 969-1390 limits assumed): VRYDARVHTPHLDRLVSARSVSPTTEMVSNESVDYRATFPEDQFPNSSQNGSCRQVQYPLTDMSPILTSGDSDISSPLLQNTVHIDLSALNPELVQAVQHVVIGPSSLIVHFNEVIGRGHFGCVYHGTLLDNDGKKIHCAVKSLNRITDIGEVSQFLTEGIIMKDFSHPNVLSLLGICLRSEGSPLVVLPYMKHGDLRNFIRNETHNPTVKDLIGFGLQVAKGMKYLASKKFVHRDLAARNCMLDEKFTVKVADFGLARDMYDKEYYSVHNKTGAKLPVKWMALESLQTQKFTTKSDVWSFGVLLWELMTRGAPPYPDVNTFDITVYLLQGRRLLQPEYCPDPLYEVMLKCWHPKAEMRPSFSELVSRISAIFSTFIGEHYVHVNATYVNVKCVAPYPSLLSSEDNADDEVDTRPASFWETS

The compound `N/C(Cc1nc2cnc3ccc(Cl)cc3c2n1-c1ccccc1Cl)=N/O` (as salt: sodium) [Example 87, 2-[8-Chloro-1-(2-chloro-phenyl)-1H-imidazo[4,5-c]quinolin-2-yl]-N-hydroxy-acetamidine] had a melting point of 114 °C. `Fc1ccc(-n2cnc3cnc4ccccc4c32)cc1` [Example 1, 1-(4-Fluoro-phenyl)-1H-imidazo[4,5-c]quinoline]: the melting point was in the range of 161 to 162 °C. Still for that read-out and setting: the same measure for `Fc1ccc(-n2cnc3cnc4cc(Cl)ccc4c32)cc1` [Example 15, 7-Chloro-1-(4-fluoro-phenyl)-1H-imidazo[4,5-c]quinoline]: 273 to 274 °C. In the case of `Fc1ccc2ncc3ncn(-c4ccccc4F)c3c2c1` [Example 19, 8-Fluoro-1-(2-fluoro-phenyl)-1H-imidazo[4,5-c]quinoline], the melting point was in the range of 162 to 163 °C. The same measure, in the same setting: the same measure for `Clc1ccc2ncc3ncn(-c4ccccc4)c3c2c1` [Example 23, 8-Chloro-1-phenyl-1H-imidazo[4,5-c]quinoline]: 240 to 242 °C. As to `Clc1ccc2ncc3ncn(-c4ccccc4Cl)c3c2c1` [Example 25, 8-Chloro-1-(2-chloro-phenyl)-1H-imidazo[4,5-c]quinoline], the IC50 on c-Met was at most 500 nM.

The compound `NCc1cccc(-n2cnc3cnc4ccc(Cl)cc4c32)c1` [Example 42, 3-(8-Chloro-imidazo[4,5-c]quinolin-1-yl)-benzylamine] displayed a melting point of 148 to 149 °C. Same read-out and setting: then `NCCc1ccc(-n2cnc3cnc4ccc(Cl)cc4c32)cc1` [Example 43, 2-[4-(8-Chloro-imidazo[4,5-c]quinolin-1-yl)-phenyl]-ethylamine], with 140 to 141 °C; and `COc1ccc2ncc3ncn(-c4ccccc4Cl)c3c2c1` [Example 44, 1-(2-Chloro-phenyl)-8-methoxy-1H-imidazo[4,5-c]quinoline], with 202 to 205 °C. `CCc1ccc2ncc3ncn(-c4ccccc4Cl)c3c2c1` [Example 49, 1-(2-Chloro-phenyl)-ethyl-1H-imidazo[4,5-c]quinoline]: the melting point was in the range of 156 to 158 °C. In turn, `Brc1ccccc1-n1cnc2cnc3ccc(-c4ccccc4)cc3c21` [Example 53, 1-(2-Bromo-phenyl)-8-Phenyl-1H-imidazo[4,5-c]quinoline] yielded a melting point of 128 to 129 °C.

Turning to `N/C(=N\O)c1ccccc1-n1cnc2cnc3ccc(-c4ccccc4)cc3c21` [Example 67, N-Hydroxy-2-(8-phenyl-imidazo[4,5-c]quinolin-1-yl)-benzamidine], the melting point is 249 to 251 °C. Same read-out and setting: the same measure for `N/C(Cc1ccccc1-n1cnc2cnc3ccc(-c4ccccc4)cc3c21)=N/O` [Example 68, N-Hydroxy-2-[2-(8-phenyl-imidazo[4,5-c]quinolin-1-yl)-phenyl]-acetamidine]: 253 to 254 °C; for `N=C(N)c1ccccc1-n1cnc2cnc3ccc(-c4ccccc4)cc3c21` [Example 69, 2-(8-Phenyl-imidazo-4,5-quinolin-1-yl)-benzamidine]: 284 to 285 °C. Still for that read-out and setting: then `N=C(N)Cc1ccccc1-n1cnc2cnc3ccc(-c4ccccc4)cc3c21` [Example 70, 2-[2-(8-Phenyl-imidazo[4,5-c]quinolin-1-yl)-phenyl]-acetamidine], with 261 to 263 °C; and `[O-][n+]1cc2ncn(-c3ccccc3Cl)c2c2cc(Cl)ccc21` [Example 71, 8-Chloro-1-(2-chloro-phenyl)-1H-imidazo[4,5-c]quinoline 5-oxide], with 247 to 250 °C; and `O=C(Nc1nc2ccc(Cl)cc2c2c1ncn2-c1ccccc1Cl)c1ccccc1` [Example 72, N-[8-Chloro-1-(2-chloro-phenyl)-1H-imidazo[4,5-c]quinolin-4-yl]-benzamide], with 255 to 258 °C.

`Nc1nc2ccc(Cl)cc2c2c1ncn2-c1ccccc1Cl` [Example 73, 8-Chloro-1-(2-chloro-phenyl)-1H-imidazo[4,5c]-quinolin-4-ylamine] yielded a melting point of 262 to 263 °C. Same read-out and setting: then `N#Cc1nc2ccc(Cl)cc2c2c1ncn2-c1ccccc1Cl` [Example 74, 8-Chloro-1-(2-chloro-phenyl)-1H-imidazo[4,5-c]quinoline-4-carbonitrile], with 248 to 250 °C; and `Clc1ccc2nc(Cl)c3ncn(-c4ccccc4Cl)c3c2c1` [Example 75, 4,8-Dichloro-1-(2-chloro-phenyl)-1H-imidazo[4,5-c]quinoline], with 194 to 200 °C.

`CNc1nc2ccc(Cl)cc2c2c1ncn2-c1ccccc1Cl` [Example 76, [8-Chloro-1-(2-chloro-phenyl)-1H-imidazo[4,5-c]quinolin-4-yl]-methyl-amine] displayed a melting point of 210 to 212 °C. On the same count and under the same terms, the same measure for `Clc1ccc2ncc3nc(Br)n(-c4ccccc4Cl)c3c2c1` [Example 82, 2-Bromo-8-chloro-1-(2-chloro-phenyl)-1H-imidazo[4,5-c]quinoline]: 183 to 192 °C; for `NC(=O)c1nc2cnc3ccc(Cl)cc3c2n1-c1ccccc1Cl` [Example 83, 8-Chloro-1-(2-chloro-phenyl)-1H-imidazo[4,5-c]quinoline-2-carboxylic acid amide]: 194 to 195 °C. Consider `N#Cc1nc2cnc3ccc(Cl)cc3c2n1-c1ccccc1Cl` [Example 84, 8-Chloro-1-(2-chloro-phenyl)-1H-imidazo[4,5-c]quinoline-2-carbonitrile], for which the melting point fell in the range of 242 to 244 °C. Also, the IC50 at c-Met was at most 500 nM.

`N/C(=N\O)c1nc2cnc3ccc(Cl)cc3c2n1-c1ccccc1Cl` [Example 86, 8-Chloro-1-(2-chloro-phenyl)-N-hydroxy-1H-imidazo[4,5-c]quinoline-2-carboxamidine] registered a melting point of 265 to 267 °C. In the case of `N/C(Cc1nc2cnc3ccc(Cl)cc3c2n1-c1ccccc1Cl)=N/O` [Example 87, 2-[8-Chloro-1-(2-chloro-phenyl)-1H-imidazo[4,5-c]quinolin-2-yl]-N-hydroxy-acetamidine], the IC50 at c-Met was 500 to 1000 nM. `N=C(N)Cc1nc2cnc3ccc(Cl)cc3c2n1-c1ccccc1Cl` [Example 88, 2-[8-Chloro-1-(2-chloro-phenyl)-1H-imidazo[4,5-c]quinolin-2-yl]-acetamidine]: the IC50 at c-Met was at most 500 nM. On to `O=c1[nH]c2cnc3ccc(Cl)cc3c2n1-c1ccccc1Cl` [Example 92, 8-Chloro-1-(2-chloro-phenyl)-1,3-dihydro-imidazo[4,5-c]quinolin-2-one], for which the IC50 at c-Met was in the range of 500 to 1000 nM.

As for `O=c1n(-c2cccc(Cl)c2)c2cnc3ccc(Br)cc3c2n1-c1ccccc1Cl` [Example 102, 8-Bromo-1-(2-chloro-phenyl)-3-(3-chloro-phenyl)-1,3-dihydro-imidazo[4,5-c]quinolin-2-one], the IC50 at c-Met was in the range of 1000 to 2000 nM. With `O=c1n(Cc2ccoc2)c2cnc3ccc(Cl)cc3c2n1-c1ccccc1Cl` [Example 133, 8-Chloro-1-(2-chloro-phenyl)-3-(3-furyl-methyl)-1,3-dihydro-imidazo[4,5-c]quinolin-2-one], the IC50 at c-Met is at most 500 nM.

The compound `Cc1nc2cnc3ccc(Cl)cc3c2n1-c1ccccc1Cl` [Example 136, 8-Chloro-1-(2-chloro-phenyl)-2-methyl-1H-imidazo[4,5-c]quinoline] displayed a melting point of 177.5 °C.
